Results from paper PMC9203742 (Nature Communications, 2022).
Several values for one entry are separate records, joined by “and”; a condition that tells them apart may be missing. Identical values can stand only once.

System: GFP-positive Purkinje cells infected with AAV-L7-mGlu1^CBC
Test: chemLTD recording in GFP-positive Purkinje cells, slices infected with AAV-L7-mGlu1^CBC
Assay type: cell-based, mouse
Conditions: for PF-EPSC amplitude normalized to time 0, individual Purkinje cells / PF-EPSC amplitude normalized to time 0, mean of cells: AAV-L7-mGlu1CBC

Cc1ccnc(-c2cc(COCCCS(=O)(=O)[O-])ccn2)c1.[Cl][Pd][Cl].[Na+] [Pd(sulfo-bpy)]
chemLTD: normalized PF-EPSC amplitude (1 μM Pd(sulfo-bpy), t = 31−35 min): 66 ± 5%
PF-EPSC amplitude normalized to time 0, individual Purkinje cells (Time 11 min): 0.7232 and 0.9829 and 0.3767 and 0.7388 and 0.7918 and 0.8459 and 0.9915
PF-EPSC amplitude normalized to time 0, mean of cells (Time 11 min): 0.7787
PF-EPSC amplitude normalized to time 0, individual Purkinje cells (Time 12 min): 0.6425 and 0.801 and 0.5915 and 0.6003 and 0.6904 and 0.8371 and 0.8565
PF-EPSC amplitude normalized to time 0, mean of cells (Time 12 min): 0.717
PF-EPSC amplitude normalized to time 0, individual Purkinje cells (Time 13 min): 0.6471 and 0.7787 and 0.7013 and 0.6809 and 0.7803 and 0.6727 and 0.8538
PF-EPSC amplitude normalized to time 0, mean of cells (Time 13 min): 0.7307
PF-EPSC amplitude normalized to time 0, individual Purkinje cells (Time 14 min): 0.6499 and 0.8303 and 0.7622 and 0.6113 and 0.7456 and 0.6953 and 0.8046
PF-EPSC amplitude normalized to time 0, mean of cells (Time 14 min): 0.7285
PF-EPSC amplitude normalized to time 0, individual Purkinje cells (Time 15 min): 0.6409 and 0.6767 and 0.8117 and 0.6223 and 0.7031 and 0.7146 and 0.8496
PF-EPSC amplitude normalized to time 0, mean of cells (Time 15 min): 0.717
PF-EPSC amplitude normalized to time 0, individual Purkinje cells (Time 16 min): 0.6376 and 0.7978 and 1.028 and 0.6558 and 0.8297 and 0.5765 and 0.8295
PF-EPSC amplitude normalized to time 0, mean of cells (Time 16 min): 0.765
PF-EPSC amplitude normalized to time 0, individual Purkinje cells (Time 17 min): 0.5747 and 0.6569 and 0.9755 and 0.6298 and 0.8796 and 0.5758 and 0.8309
PF-EPSC amplitude normalized to time 0, mean of cells (Time 17 min): 0.7319
PF-EPSC amplitude normalized to time 0, individual Purkinje cells (Time 18 min): 0.6181 and 0.7827 and 0.9415 and 0.633 and 0.8865 and 0.5391 and 0.791
PF-EPSC amplitude normalized to time 0, mean of cells (Time 18 min): 0.7417
PF-EPSC amplitude normalized to time 0, individual Purkinje cells (Time 19 min): 0.6525 and 0.7374 and 0.8732 and 0.5834 and 0.9022 and 0.5765 and 0.7947
PF-EPSC amplitude normalized to time 0, mean of cells (Time 19 min): 0.7314
PF-EPSC amplitude normalized to time 0, individual Purkinje cells (Time 20 min): 0.6393 and 0.699 and 0.8317 and 0.5962 and 0.9401 and 0.5543 and 0.7516
PF-EPSC amplitude normalized to time 0, mean of cells (Time 20 min): 0.716
PF-EPSC amplitude normalized to time 0, individual Purkinje cells (Time 21 min): 0.6574 and 0.7237 and 1.073 and 0.5004 and 0.9213 and 0.5453 and 0.8183
PF-EPSC amplitude normalized to time 0, mean of cells (Time 21 min): 0.7484
PF-EPSC amplitude normalized to time 0, individual Purkinje cells (Time 22 min): 0.698 and 0.6854 and 0.7706 and 0.5876 and 1.007 and 0.5965 and 0.7681
PF-EPSC amplitude normalized to time 0, mean of cells (Time 22 min): 0.7305
PF-EPSC amplitude normalized to time 0, individual Purkinje cells (Time 23 min): 0.6936 and 0.7382 and 0.9273 and 0.5926 and 0.9601 and 0.5241 and 0.7745
PF-EPSC amplitude normalized to time 0, mean of cells (Time 23 min): 0.7443
PF-EPSC amplitude normalized to time 0, individual Purkinje cells (Time 24 min): 0.6834 and 0.653 and 0.9054 and 0.6969 and 0.9426 and 0.569 and 0.7678
PF-EPSC amplitude normalized to time 0, mean of cells (Time 24 min): 0.7455
PF-EPSC amplitude normalized to time 0, individual Purkinje cells (Time 25 min): 0.6421 and 0.6906
PF-EPSC amplitude normalized to time 0, mean of cells (Time 25 min): 0.7344
PF-EPSC amplitude normalized to time 0, mean of cells (Time 26 min): 0.7041
PF-EPSC amplitude normalized to time 0, mean of cells (Time 27 min): 0.6979
PF-EPSC amplitude normalized to time 0, mean of cells (Time 28 min): 0.6908
PF-EPSC amplitude normalized to time 0, mean of cells (Time 29 min): 0.7115
PF-EPSC amplitude normalized to time 0, mean of cells (Time 30 min): 0.7
PF-EPSC amplitude normalized to time 0, mean of cells (Time 31 min): 0.6852
PF-EPSC amplitude normalized to time 0, mean of cells (Time 32 min): 0.6868
PF-EPSC amplitude normalized to time 0, mean of cells (Time 33 min): 0.6788
PF-EPSC amplitude normalized to time 0, mean of cells (Time 34 min): 0.6319
PF-EPSC amplitude normalized to time 0, mean of cells (Time 35 min): 0.6255
